Data from patent US20070238184A1, “Amyloid beta protein channel structure and uses thereof in identifying potential drug molecules for neurodegenerative diseases” (The Regents of the University of California, priority 2005, published 2007).
No end group written: not given here.

Columns and labels:
[1] = molecular target: T1, channels formed by the 42-residue AbP1-42 (Homo sapiens, UniProt P05067); test: Liposomes reconstituted with AbP1-42 channels, channel block; format: biochemical
T1 construct: the channels formed by the 42-residue AbP1-42
T1 sequence (P05067 672-713 limits assumed): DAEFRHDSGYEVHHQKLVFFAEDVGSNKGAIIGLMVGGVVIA
Text: (§1) In certain embodiments binding of test agents can be detected by detecting alterations (e.g., decrease) of ion (e.g., Ca^2+) uptake by a cell, oocytes, or liposome in the presence of the test agent(s)-uptake in to the liposomes. This can readily be detected using for example a radio-isotope (e.g., 45Ca^2+) or a calcium sensitive dye (e.g., arsenazo III (AIII), Fura-2, Fluo-3, Fluo-4, Calcium green, etc.).
(§2) Using liposomes reconstituted with AbP channels in the membrane, one can screen for compounds that block AbP channels.

AbP ion channels [2] = test: AbP-induced toxicity in cultured cells; format: cell-based; conditions: blocking Ca2+ influx through AbP ion channels
[3] = molecular target: T2, channels formed by the 40 residue AbP1-40 (Homo sapiens, UniProt P05067); test: 45Ca2+ uptake into liposomes reconstituted with AbP1-40 channels; format: biochemical
T2 construct: the channels formed by the 40 residue AbP1-40
T2 sequence (P05067 672-711 limits assumed): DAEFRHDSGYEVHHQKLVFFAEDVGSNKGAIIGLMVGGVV
Text: as §1, §2

AbP ion channels [4] = test: Ca2+ influx through AbP ion channels incorporated into unilaminar liposomes; format: biochemical, human
Text: Consistent with these discoveries, we have shown that AbP ion channels mediate Ca^2+ influx when incorporated into unilaminar liposomes, and the Ca^2+ influx was blocked by Zn^2+ and an anti-AbP antibody.

[5] = Single-channel current recording in planar phospholipid bilayer membranes; conditions: voltage clamp, peptide added to one side, pH 7.4
Procedure: Planar phospholipid bilayer membranes were formed as described by Mirzabekov et al. (1999) Meth. Enzymol. 294: 61-74. A bubble of lipid dissolved in heptane was placed at the end of a small (100-300 μm) Teflon tube. Silver/silver chloride electrodes connected the aqueous components bounding the membrane to a voltage clamp. Ion-channel currents through the membrane were recorded by an Axopatch amplifier (Axon Instruments, Sunnyvale, Calif.). Data were filtered at 1 kHz and stored on VHS tape. Membrane capacitance and resistance were monitored continuously to ensure the formation and stability of reproducible membranes and the proper membrane thickness. […] Peptide samples were introduced by perfusing the aqueous solution bounding one side of the membrane.

[6] = IV curve conductance across lipid bilayer suspended over silicon chip nanopore; conditions: 0.2 mg/ml, 135 mM KCl, bilayer only 0.025 nS
Procedure: In order to study the sealing effect of the bilayer over the nanopores in the chip, lipid vesicles were deposited over to chips. After 30 minutes for a bilayer to form from vesicular fusion, the excess unadsorbed lipids and vesicles were rinsed away from the surface. Bulk electrical conductance across the supported nanopore chip and the overlying adsorbed lipid bilayer was measured using a drop of 135 mM KCl solution on top of the chip in which the AFM tip holder assembly was submerged and 135 mM KCl under the nitride membrane. The IV curve measured was near flat and indicates a conductance across the bilayer of 0.025 nS. To check for the possibility of using the nanopore chip to measure ion channel conductance, Gramicidin (a known ion channel forming peptide) was added to the solution at a concentration of 0.2 mg/ml. The effect of Gramicidin on conductance is shown in FIG. 18, while applying a 1V bias to the bottom electrode under the silicon nitride membrane.
For all samples, nano pore membranes were mounted on plastic liquid cells to exchange fluid above or below the membrane. IV curves were obtained in 135 mM KCl solution. Current was measured using the conductive AFM setup with the cantilevered tip holder as an electrode on the top and a reference electrode under the pore-chip (FIG. 20). In absence of an insulating coat, when buffer was present on both sides of the chip, current is measured through the complete tip holder clip. To image current only through the AFM tip apex, conductance was measured with 135 mM KCl solution only under the pore chip and a flow of humid air was maintained over the top surface. This set up also ensured that, by allowing only a local water meniscus between tip and the sample, only the local conductance through each pore was measured.
AFM was also used to image pores after deposition of lipid vesicles (DOPC) prepared by previously described method (Lin et al. (1999) Biochemistry, 38: 11189-11196). Briefly, vesicles were formed by drying 1 mg of DOPC lipid in a glass tube, kept in a desiccator overnight, and rehydrated in buffer with occasional sonication. For vesicle deposition a droplet (50 micro liter, 1 mg/ml) of vesicles was placed on the pore chip, allowed to adsorb for 30 minutes, and rinsed with buffer. After bilayer deposition and before IV measurements, ionic strength was brought back to 135 mM KCl both on top as well as below the pore chip to keep the bilayer hydrated properly, and current was measured through the tip holder. Once a proper seal was achieved by the bilayer, Gramicidin, an ion channel forming peptide (dissolved in milliQ water with 135 mM KCl), was added to the buffer solution, and the current was measured as a function of time while gramicidin interacted with the bilayer.

**Q.** For [Zn+2] [Zn^2+], which “block of AbP1-42 channels” value [1] is on record?
**A.** Its value is “blocked”.

**Q.** What about the “effect on AbP-induced toxicity” value (AbP ion channels [2]) of the same molecule?
**A.** The value was “inhibited AbP-induced toxicity”.

**Q.** And the “block of AbP1-40 channels and inhibition of 45Ca2+ uptake into the liposomes” value [3]?
**A.** Its value is “blocks the channels”.

**Q.** What about the “block of Ca2+ influx mediated by AbP ion channels” value (AbP ion channels [4]) of the same molecule?
**A.** The value was “blocked”.

**Q.** For NAC: NAC (α-synuclein 60-95), which “induction of single-channel ion currents / conductances” value [5] is on record?
**A.** Its value is “Current jumps corresponding to the opening or closing of individual ion channels can be observed”.

**Q.** Which “conductance after addition of Gramicidin” value ([6]; 10 seconds after addition) does the source give for Gramicidin here?
**A.** Its value is 0.25 nS.

**Q.** And the “conductance after addition of Gramicidin” value ([6]; 2 minutes after addition)?
**A.** The value was 0.5 nS.

**Q.** What about the “conductance after addition of Gramicidin” value ([6]; 4 minutes after addition) of the same molecule?
**A.** The value was 1 nS.

**Q.** And the “conductance after addition of Gramicidin” value ([6]; 4 minutes after addition, listed as gramicidin)?
**A.** Its value is “roughly 1 nS”.

**Q.** For NC(CO)(CO)CO [Tris], which “block of AbP1-42 channels” value [1] is on record?
**A.** Its value is “blocked”.

**Q.** For “islet amyloid polypeptide (KCNTATCATQRLANFLVHSSNNFGAILSSTNVGSNTY; not fully specified (C-terminus, bridges); cysteine pairing not given here; UniProt P10997 34-70, looked up) [Amylin, amyloid peptide synthesized by N-t-butyloxycarbonyl chemistry]”, which “induction of single-channel ion currents / conductances” value [5] is on record?
**A.** The value was “Current jumps corresponding to the opening or closing of individual ion channels can be observed”.

**Q.** For amyloid-β(1-40) [Aβ(1-40)], which “induction of single-channel ion currents / conductances” value [5] is on record?
**A.** The value was “Current jumps corresponding to the opening or closing of individual ion channels can be observed”.
